Assay results published in patent US20100227887A1 (priority 2009, published 2010).

Assays:
human mGlu 5a receptor = target: T1, human mGlu 5a receptor (Homo sapiens, UniProt P41594); assay: [3H]MPEP competition binding on membranes of EBNA cells transfected with human mGlu 5a receptor; details: [3H]MPEP (2 nM) competition, 1 h at 4° C., EBNA cell membranes
T1 construct: expressed in transfected cells; host or cells: EBNA cells (transient transfection); cell membrane homogenates
Description: The pharmacological activity of the compounds was tested using the following method: For binding experiments, cDNA encoding human mGlu 5a receptor was transiently transfected into EBNA cells using a procedure described by Schlaeger and Christensen [Cytotechnology 15:1-13 (1998)]. Cell membrane homogenates were stored at −80° C. until the day of assay where upon they were thawed and resuspended and polytronised in 15 mM Tris-HCl, 120 mM NaCl, 100 mM KCl, 25 mM CaCl2, 25 mM MgCl2 binding buffer at pH 7.4 to a final assay concentration of 20 μg protein/well.
Saturation isotherms were determined by addition of twelve [^3H]MPEP concentrations (0.04-100 nM) to these membranes (in a total volume of 200 μl) for 1 h at 4° C. Competition experiments were performed with a fixed concentration of [^3H]MPEP (2 nM) and IC50 values of test compounds evaluated using 11 concentrations (0.3-10,000 nM). Incubations were performed for 1 h at 4° C.
At the end of the incubation, membranes were filtered onto unifilter (96-well white microplate with bonded GF/C filter preincubated 1 h in 0.1% PEI in wash buffer, Packard Bio-Science, Meriden, Conn.) with a Filtermate 96 harvester (Packard BioScience) and washed 3 times with cold 50 mM Tris-HCl, pH 7.4 buffer. Nonspecific binding was measured in the presence of 10 μM MPEP. The radioactivity on the filter was counted (3 min) on a Packard Top-count microplate scintillation counter with quenching correction after addition of 45 μl of microscint 40 (Canberra Packard S. A., Zürich, Switzerland) and shaking for 20 min.
For binding experiments the Ki values of the compounds tested are given. The Ki value is defined by the following formula: […]
in which the IC50 values are those concentrations of the compounds tested which cause 50% inhibition of the competing radioligand ([^3H]MPEP). L is the concentration of radioligand used in the binding experiment and the Kd value of the radioligand is empirically determined for each batch of membranes prepared.

T1 sequence (P41594 21-1180 isoform P41594-2 limits assumed): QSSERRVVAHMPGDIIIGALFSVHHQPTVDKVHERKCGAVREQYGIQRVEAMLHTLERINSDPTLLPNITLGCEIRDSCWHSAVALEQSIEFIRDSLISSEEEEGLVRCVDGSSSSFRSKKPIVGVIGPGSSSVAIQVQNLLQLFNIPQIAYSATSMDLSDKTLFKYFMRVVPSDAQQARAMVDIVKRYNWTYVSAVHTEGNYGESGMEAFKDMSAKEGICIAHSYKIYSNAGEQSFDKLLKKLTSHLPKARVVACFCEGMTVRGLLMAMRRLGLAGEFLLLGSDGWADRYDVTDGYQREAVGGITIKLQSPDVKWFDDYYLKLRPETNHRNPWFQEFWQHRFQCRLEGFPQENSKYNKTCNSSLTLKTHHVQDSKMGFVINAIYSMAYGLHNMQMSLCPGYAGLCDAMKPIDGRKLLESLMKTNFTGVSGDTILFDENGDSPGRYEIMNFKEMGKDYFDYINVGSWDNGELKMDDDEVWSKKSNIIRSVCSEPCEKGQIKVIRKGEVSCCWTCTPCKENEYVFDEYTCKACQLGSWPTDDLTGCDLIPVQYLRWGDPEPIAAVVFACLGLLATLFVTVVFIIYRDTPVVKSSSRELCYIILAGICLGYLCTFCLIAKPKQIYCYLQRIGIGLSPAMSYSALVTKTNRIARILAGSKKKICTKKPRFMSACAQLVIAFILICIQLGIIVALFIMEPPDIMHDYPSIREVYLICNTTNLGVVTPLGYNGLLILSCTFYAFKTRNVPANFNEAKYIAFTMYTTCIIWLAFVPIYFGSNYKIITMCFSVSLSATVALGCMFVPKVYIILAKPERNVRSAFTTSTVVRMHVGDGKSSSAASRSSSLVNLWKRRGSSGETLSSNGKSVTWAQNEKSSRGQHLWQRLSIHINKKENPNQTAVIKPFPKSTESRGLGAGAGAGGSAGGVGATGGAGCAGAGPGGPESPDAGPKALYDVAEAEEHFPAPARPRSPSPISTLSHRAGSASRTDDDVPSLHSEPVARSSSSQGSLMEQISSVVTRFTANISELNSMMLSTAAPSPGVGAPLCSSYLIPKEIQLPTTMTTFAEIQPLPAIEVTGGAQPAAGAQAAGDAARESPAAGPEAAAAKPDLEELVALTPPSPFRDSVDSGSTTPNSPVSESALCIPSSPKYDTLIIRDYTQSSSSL

| Structure (SMILES) | Ki (human mGlu 5a receptor) | melting point |
| --- | --- | --- |
| Cc1cc(C#N)cc(C(=O)Nc2ccn(C)n2)n1 [Example 1, 4-Cyano-6-methyl-pyridine-2-carboxylic acid (1-methyl-1H-pyrazol-3-yl)-amide] | 38 nM | 201 °C |
| Cc1cc(Cl)cc(C(=O)Nc2ccn(C)n2)n1 [Example 2, 4-Chloro-6-methyl-pyridine-2-carboxylic acid (1-methyl-1H-pyrazol-3-yl)-amide] | 73 nM | 203.5 °C |
| Cc1cc(C#N)cc(C(=O)Nc2nc(C)cs2)n1 [Example 3, 4-Cyano-6-methyl-pyridine-2-carboxylic acid (4-methyl-thiazol-2-yl)-amide] | 15 nM | 211 °C |
| Cc1cc(C#N)cc(C(=O)Nc2ccc(F)cn2)n1 [Example 4, 4-Cyano-6-methyl-pyridine-2-carboxylic acid (5-fluoro-pyridin-2-yl)-amide] | 6 nM | 204.5 °C |
| Cc1ccc(NC(=O)c2cc(C#N)cc(C)n2)nc1 [Example 5, 4-Cyano-6-methyl-pyridine-2-carboxylic acid (5-methyl-pyridin-2-yl)-amide] | 11 nM | 196 °C |
| Cc1cc(C#N)cc(C(=O)Nc2ccc(C#N)cn2)n1 [Example 6, 4-Cyano-6-methyl-pyridine-2-carboxylic acid (5-cyano-pyridin-2-yl)-amide] | 109 nM | 279 °C |
| C#Cc1cc(C)nc(C(=O)Nc2ccn(C)n2)c1 [Example 7, 4-Ethynyl-6-methyl-pyridine-2-carboxylic acid (1-methyl-1H-pyrazol-3-yl)-amide] | 33 nM | 226.5 °C |
| Cc1cc(Br)cc(C(=O)Nc2ccc(F)cn2)n1 [Example 8, 4-Bromo-6-methyl-pyridine-2-carboxylic acid (5-fluoro-pyridin-2-yl)-amide] | 37 nM | 160 °C |
| Cc1cc(C#N)cc(C(=O)Nc2ccc(Cl)cn2)n1 [Example 9, 4-Cyano-6-methyl-pyridine-2-carboxylic acid (5-chloro-pyridin-2-yl)-amide] | 8 nM | 233.5 °C |
| Cc1cc(Br)cc(C(=O)Nc2ccc(F)c(C)n2)n1 [Example 10, 4-Bromo-6-methyl-pyridine-2-carboxylic acid (5-fluoro-6-methyl-pyridin-2-yl)-amide] | 61 nM | 181.5 °C |
| Cc1cc(C#N)cc(C(=O)Nc2ccc(F)c(C)n2)n1 [Example 11] | 57 nM | 222 °C |
| Cc1cc(C#N)c(C)c(C(=O)Nc2ccn(C)n2)n1 [Example 12, 4-Cyano-3,6-dimethyl-pyridine-2-carboxylic acid (1-methyl-1H-pyrazol-3-yl)-amide] | 143 nM | 180.5 °C |
| CC(C)c1cc(C#N)cc(C(=O)Nc2ccn(C)n2)n1 [Example 13, 4-Cyano-6-isopropyl-pyridine-2-carboxylic acid (1-methyl-1H-pyrazol-3-yl)-amide] | – | 174 °C |
| Cn1ccc(NC(=O)c2cc(C#N)cc(C(F)(F)F)n2)n1 [Example 15, 4-Cyano-6-trifluoromethyl-pyridine-2-carboxylic acid (1-methyl-1H-pyrazol-3-yl)-amide] | – | 190.5 °C |
| N#Cc1cc(C(=O)Nc2ccc(F)cn2)nc(C(F)(F)F)c1 [Example 16, 4-Cyano-6-trifluoromethyl-pyridine-2-carboxylic acid (5-fluoro-pyridin-2-yl)-amide] | 139 nM | 186.5 °C |
| Cc1cc(Cl)cc(C(=O)Nc2ccc(Cl)cn2)n1 [Example 17, 4-Chloro-6-methyl-pyridine-2-carboxylic acid (5-chloro-pyridin-2-yl)-amide] | – | 151 °C |
| Cc1cc(Cl)cc(C(=O)Nc2ccc(F)cn2)n1 [Example 18, 4-Chloro-6-methyl-pyridine-2-carboxylic acid (5-fluoro-pyridin-2-yl)-amide] | 30 nM | 156 °C |
| Cc1ccc(NC(=O)c2cc(Cl)cc(C)n2)nc1 [Example 19, 4-Chloro-6-methyl-pyridine-2-carboxylic acid (5-methyl-pyridin-2-yl)-amide] | 109 nM | 159 °C |
| Cc1cc(Cl)cc(C(=O)Nc2nc(C)cs2)n1 [Example 20, 4-Chloro-6-methyl-pyridine-2-carboxylic acid (4-methyl-thiazol-2-yl)-amide] | 14 nM | 176 °C |
| CCc1cc(Br)cc(C(=O)Nc2ccc(F)cn2)n1 [Example 21, 4-Bromo-6-ethyl-pyridine-2-carboxylic acid (5-fluoro-pyridin-2-yl)-amide] | – | 123.5 °C |
| Cc1cc(C#N)cc(C(=O)Nc2ccnc(Cl)c2)n1 [Example 22, 4-Cyano-6-methyl-pyridine-2-carboxylic acid (2-chloro-pyridin-4-yl)-amide] | 25 nM | 238.5 °C |
| Cc1cc(C#N)cc(C(=O)Nc2cccc(Cl)n2)n1 [Example 23, 4-Cyano-6-methyl-pyridine-2-carboxylic acid (6-chloro-pyridin-2-yl)-amide] | 8 nM | 222.5 °C |

Other lines, results leading:

| Ki (human mGlu 5a receptor) | melting point | Structure (SMILES) |
| --- | --- | --- |
| 36 nM | 164.5 °C | CCc1cc(C#N)cc(C(=O)Nc2ccn(C)n2)n1 [Example 24, 4-Cyano-6-ethyl-pyridine-2-carboxylic acid (1-methyl-1H-pyrazol-3-yl)-amide] |
| 11 nM | 183.5 °C | CCc1cc(C#N)cc(C(=O)Nc2ccc(F)cn2)n1 [Example 25, 4-Cyano-6-ethyl-pyridine-2-carboxylic acid (5-fluoro-pyridin-2-yl)-amide] |
| 6 nM | 147.5 °C | Cc1cc(C#N)cc(C(=O)Nc2cccc(Cl)c2)n1 [Example 26, 4-Cyano-6-methyl-pyridine-2-carboxylic acid (3-chloro-phenyl)-amide] |
| 31 nM | 196.5 °C | Cc1cc(C#N)c(C)c(C(=O)Nc2ccc(F)cn2)n1 [Example 27, 4-Cyano-3,6-dimethyl-pyridine-2-carboxylic acid (5-fluoro-pyridin-2-yl)-amide] |
| – | 201 °C | Cc1cc(C#N)c(C)c(C(=O)Nc2ccc(F)c(C)n2)n1 [Example 28, 4-Cyano-3,6-dimethyl-pyridine-2-carboxylic acid (5-fluoro-6-methyl-pyridin-2-yl)-amide] |
| 97 nM | 264 °C | Cc1cc(C#N)c(C)c(C(=O)Nc2ccc(Cl)cn2)n1 [Example 29, 4-Cyano-3,6-dimethyl-pyridine-2-carboxylic acid (5-chloro-pyridin-2-yl)-amide] |
| 37 nM | 199.5 °C | Cc1csc(NC(=O)c2nc(C)cc(C#N)c2C)n1 [Example 30, 4-Cyano-3,6-dimethyl-pyridine-2-carboxylic acid (4-methyl-thiazol-2-yl)-amide] |
| – | 216 °C | Cc1cc(C#N)c(C)c(C(=O)Nc2ccc(C#N)cn2)n1 [Example 31, 4-Cyano-3,6-dimethyl-pyridine-2-carboxylic acid (5-cyano-pyridin-2-yl)-amide] |
| – | 212.5 °C | Cc1ccc(NC(=O)c2nc(C)cc(C#N)c2C)nc1 [Example 32, 4-Cyano-3,6-dimethyl-pyridine-2-carboxylic acid (5-methyl-pyridin-2-yl)-amide] |
| – | 208 °C | N#Cc1cc(C(=O)Nc2ccc(Cl)cn2)nc(C(F)(F)F)c1 [Example 33, 4-Cyano-6-trifluoromethyl-pyridine-2-carboxylic acid (5-chloro-pyridin-2-yl)-amide] |
| – | 221 °C | Cc1cc(Cl)cc(C(=O)Nc2ccnc(Cl)c2)n1 [Example 34, 4-Chloro-6-methyl-pyridine-2-carboxylic acid (2-chloro-pyridin-4-yl)-amide] |
| 34 nM | 176 °C | Cc1cc(Cl)cc(C(=O)Nc2cccc(Cl)n2)n1 [Example 35, 4-Chloro-6-methyl-pyridine-2-carboxylic acid (6-chloro-pyridin-2-yl)-amide] |
| – | 189 °C | Cc1cc(C#N)cc(C(=O)Nc2ccc(F)cc2)n1 [Example 39, 4-Cyano-6-methyl-pyridine-2-carboxylic acid (4-fluoro-phenyl)-amide] |
| – | 123 °C | Cc1cc(Cl)cc(C(=O)Nc2cccc(F)c2)n1 [Example 52, 4-Chloro-6-methyl-pyridine-2-carboxylic acid (3-fluoro-phenyl)-amide] |
| – | 162 °C | Cc1cc(NC(=O)c2cc(Cl)cc(C)n2)ccn1 [Example 53, 4-Chloro-6-methyl-pyridine-2-carboxylic acid (2-methyl-pyridin-4-yl)-amide] |
